Experimental data reported in paper PMC2918394 (Journal of medicinal chemistry, 2010).

Columns and labels:
[1] = molecular target: SARS-CoV PLpro (Severe acute respiratory syndrome coronavirus, UniProt P0C6X7); type: biochemical
[2] = test system: SARS-CoV; type: cell-based; details: SARS-CoV infected Vero E6 cells

## 1-[1-(2-Naphthyl)ethyl]-4-(4-methoxybenzylamino)carbonylpiperazine [Compound 20]
[1]
  PLpro inhibitory activity (in words): no activity against PLpro

## COc1ccc(CNC(=O)C2CCN(Cc3cccc4ccccc34)CC2)cc1 [Compound 3]
[2]
  antiviral activity (in words): does not show any antiviral activity

## COc1ccccc1CNC(=O)C1CCN(Cc2cccc3ccccc23)CC1 [Compound 7a, 1-[(1-Naphthyl)methyl]-4-[(2-methoxybenzylamino)carbonyl]piperidine]
[1]
  PLpro inhibitory activity (in words): very poor inhibitory activity

## COc1ccccc1CNC(=O)C1CCN([C@H](C)c2cccc3ccccc23)CC1 [Compound 15a, 1-[(R)-1-(1-Naphthyl)ethyl]-4-(2-methoxybenzylamino)carbonylpiperidine]
[1]
  reduction in potency over 15b and 15c: 3 fold

## COc1ccc(CNC(=O)C2CCN([C@H](C)c3cccc4ccccc34)CC2)cc1 [Compound 15c, 1-[(R)-1-(1-Naphthyl)ethyl]-4-(4-methoxybenzylamino)carbonylpiperidine]
[1]
  potency enhancement over 3: > 170 fold

## COc1cccc(CNC(=O)C2CCN([C@@H](C)c3ccc4ccccc4c3)CC2)c1 [Compound 15f, 1-[(S)-1-(2-Naphthyl)ethyl]-4-(3-methoxybenzylamino)carbonylpiperidine]
[2]
  antiviral activity (in words): no antiviral activity
[1]
  more potent than the 2(R)-derivative 15d: 2 fold

## CC(C)(c1cccc2ccccc12)N1CCC(C(=O)NCc2ccc3c(c2)OCO3)CC1 [Compound 15k, 1-[1-Methyl-1-(1-naphthyl)ethyl]-4-[3,4-(methylenedioxy)benzylamino]carbonylpiperidine]
[1]
  PLpro inhibitory activity (in words): inactive
